# Earlier results, collected in patent US20060134230A1, “Weight loss composition and formulation” (priority 2004, published 2006).
# Experiments:
# lipases = conditions: in vivo
# [1] = tested on: oxidative phosphorylation
# fatty acid synthase = fatty acid synthase (Homo sapiens, UniProt P49327)
# 3T3-L1 = 3T3-L1 preadipocyte
# [2] = tested on: glucose transport at the brush border of the small intestine; conditions: in vivo
# Sequence of fatty acid synthase (P49327 whole entry, species assumed): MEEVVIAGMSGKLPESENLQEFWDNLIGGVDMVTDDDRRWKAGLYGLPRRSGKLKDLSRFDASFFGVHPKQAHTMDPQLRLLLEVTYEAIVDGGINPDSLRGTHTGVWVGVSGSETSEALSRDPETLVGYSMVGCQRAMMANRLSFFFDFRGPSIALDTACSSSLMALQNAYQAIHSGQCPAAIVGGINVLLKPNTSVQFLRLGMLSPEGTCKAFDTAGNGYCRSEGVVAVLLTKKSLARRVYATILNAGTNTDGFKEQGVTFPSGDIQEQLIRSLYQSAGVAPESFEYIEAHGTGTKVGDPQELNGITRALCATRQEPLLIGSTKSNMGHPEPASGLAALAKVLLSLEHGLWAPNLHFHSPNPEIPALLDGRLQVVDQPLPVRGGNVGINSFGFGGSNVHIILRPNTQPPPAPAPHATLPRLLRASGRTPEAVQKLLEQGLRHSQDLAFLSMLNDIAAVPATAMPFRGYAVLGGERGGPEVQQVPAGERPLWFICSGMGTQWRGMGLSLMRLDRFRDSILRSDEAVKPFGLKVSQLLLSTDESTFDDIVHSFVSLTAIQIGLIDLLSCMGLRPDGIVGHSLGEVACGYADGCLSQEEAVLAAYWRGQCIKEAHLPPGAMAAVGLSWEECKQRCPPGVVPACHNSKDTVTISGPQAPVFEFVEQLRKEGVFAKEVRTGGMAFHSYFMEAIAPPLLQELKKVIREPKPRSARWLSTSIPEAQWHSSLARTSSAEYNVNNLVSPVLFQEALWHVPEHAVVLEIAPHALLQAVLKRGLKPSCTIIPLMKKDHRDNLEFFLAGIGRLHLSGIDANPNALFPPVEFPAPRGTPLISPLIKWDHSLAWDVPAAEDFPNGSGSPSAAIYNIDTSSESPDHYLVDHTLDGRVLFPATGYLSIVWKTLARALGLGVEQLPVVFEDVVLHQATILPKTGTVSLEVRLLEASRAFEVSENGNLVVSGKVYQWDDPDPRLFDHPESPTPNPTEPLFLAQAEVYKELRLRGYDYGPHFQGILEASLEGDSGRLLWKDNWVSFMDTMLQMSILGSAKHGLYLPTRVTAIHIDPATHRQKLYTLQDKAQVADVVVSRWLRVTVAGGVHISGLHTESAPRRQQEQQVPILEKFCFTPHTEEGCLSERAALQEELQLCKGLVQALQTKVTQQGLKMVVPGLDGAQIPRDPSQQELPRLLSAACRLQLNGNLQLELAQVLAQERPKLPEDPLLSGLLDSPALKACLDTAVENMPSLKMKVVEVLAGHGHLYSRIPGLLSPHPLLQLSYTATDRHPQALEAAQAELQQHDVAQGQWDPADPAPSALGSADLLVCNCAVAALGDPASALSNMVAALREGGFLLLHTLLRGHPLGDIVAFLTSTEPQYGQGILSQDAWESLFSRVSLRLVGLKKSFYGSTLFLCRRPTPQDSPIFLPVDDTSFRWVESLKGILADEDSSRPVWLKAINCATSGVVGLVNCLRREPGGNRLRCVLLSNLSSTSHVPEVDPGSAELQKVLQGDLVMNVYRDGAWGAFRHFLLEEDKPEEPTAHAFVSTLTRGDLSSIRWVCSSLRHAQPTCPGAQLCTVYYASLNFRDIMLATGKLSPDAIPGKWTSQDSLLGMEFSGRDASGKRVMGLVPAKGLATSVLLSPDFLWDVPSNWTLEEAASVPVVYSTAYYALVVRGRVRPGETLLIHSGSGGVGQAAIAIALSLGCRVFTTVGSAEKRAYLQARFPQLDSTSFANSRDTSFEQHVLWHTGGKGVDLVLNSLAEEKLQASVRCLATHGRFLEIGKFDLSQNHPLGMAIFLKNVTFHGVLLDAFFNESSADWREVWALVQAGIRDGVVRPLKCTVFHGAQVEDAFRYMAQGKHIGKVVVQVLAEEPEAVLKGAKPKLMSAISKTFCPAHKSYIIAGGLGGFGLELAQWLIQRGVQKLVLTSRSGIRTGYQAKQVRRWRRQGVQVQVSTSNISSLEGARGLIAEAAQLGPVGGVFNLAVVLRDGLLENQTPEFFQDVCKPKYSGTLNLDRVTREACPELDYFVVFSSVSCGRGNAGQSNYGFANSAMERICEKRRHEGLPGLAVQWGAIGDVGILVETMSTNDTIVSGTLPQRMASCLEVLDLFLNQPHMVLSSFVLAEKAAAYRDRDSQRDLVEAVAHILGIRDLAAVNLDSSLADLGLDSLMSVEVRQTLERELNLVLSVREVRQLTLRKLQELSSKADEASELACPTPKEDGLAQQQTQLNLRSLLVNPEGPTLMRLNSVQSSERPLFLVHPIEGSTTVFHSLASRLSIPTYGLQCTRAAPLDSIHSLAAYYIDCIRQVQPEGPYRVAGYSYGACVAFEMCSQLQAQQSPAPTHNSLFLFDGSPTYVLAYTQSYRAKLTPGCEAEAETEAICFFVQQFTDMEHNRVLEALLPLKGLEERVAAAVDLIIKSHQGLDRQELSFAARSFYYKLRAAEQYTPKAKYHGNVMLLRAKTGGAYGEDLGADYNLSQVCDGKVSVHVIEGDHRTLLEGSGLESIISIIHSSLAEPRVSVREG
smiles,measurement,setting,value
CCCCCCCCCCC[C@@H](C[C@@H]1OC(=O)[C@H]1CCCCCC)OC(=O)[C@H](CC(C)C)NC=O [Xenical],dietary fat blocked from being absorbed,lipases,about 30%
C=CC(C)(C)c1cc2cc3c(cc2oc1=O)O[C@H](C(C)(C)O)C3 [chalepin],oxidative uncoupling,[1],act as oxidative uncouplers
"Cc1cc(O)c2c(c1)C(=O)c1cc(O)cc(O)c1C2=O [emodin, 3-methyl-1,6,8-trihydroxy-anthraquinone]",inhibition effect on fatty acid synthase,fatty acid synthase,"inhibition effect on fatty acid synthase, which is dose dependent"
same,inhibition of differentiation of 3T3-L1,3T3-L1,inhibition of differentiation of 3T3-L1
CC(C)=CCOc1c2occc2cc2ccc(=O)oc12 [imperatorin],oxidative uncoupling,[1],act as oxidative uncouplers
CC(C)(O)[C@@H]1Cc2cc3ccc(=O)oc3cc2O1 [marmesin],oxidative uncoupling,[1],act as oxidative uncouplers
CC1(C)CC[C@]2(C(=O)O)CC[C@]3(C)C(=CC[C@@H]4[C@@]5(C)CC[C@H](O)C(C)(C)[C@@H]5CC[C@]43C)[C@@H]2C1 [oleanic acid],glucose transport at the brush border of the small intestine,[2],inhibiting glucose transport at the brush border of the small intestine
same,transfer of glucose from the stomach to the small intestine,[2],suppress the transfer of glucose from the stomach to the small intestine
